# Activity calls are given as the source filed them.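 The calls were made as follows: active = compounds giving half or more protection of infected cells from virus-caused growth loss, again on retest; inactive = the rest.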
# Tested on: CEM cells HIV-1 protection, formazan growth assay
# Assay: NCI AIDS Antiviral Assay
# Conditions: for IC50: measured here: growth of uninfected CEM cells
# How it was run: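 CEM (human) cells, HIV-1 infected vs uninfected, 5-point dosing, formazan growth read-out. Retest threshold 50% protection.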
Structure (SMILES),EC50 [µM],IC50 [µM],outcome
CC(C)(C)OC(=O)c1ccc(NCC2=C(Br)C(=O)C=CC2=O)cc1,> 200,11.5,–
CCOC(=O)c1[nH]c(CN(C)Cc2[nH]c(C(=O)OCC)c(C)c2C(=O)OCc2ccccc2)c(C(=O)OCc2ccccc2)c1C,> 6.03,> 6.03,–
CN(C(=O)CC(=O)CP(=O)(c1ccccc1)c1ccccc1)c1ccccc1,> 200,135,–
COc1ccc(C2CC(c3c(O)ccc4ccccc34)=NN2c2ccc([N+](=O)[O-])cc2[N+](=O)[O-])cc1OC (centres undefined),> 200,15.8,–
CC(C)[Si](OCC/C=C/C1CCC(=O)C1C(O)C1CCCCC1)(C(C)C)C(C)C (centres undefined),–,–,inactive
CC(=O)NC1NCCNC1=O (centres undefined),> 200,> 200,–
c1ccc(-c2cnc3cccnc3n2)cc1,> 200,174,–
COc1cc(O)c2c(c1)C(=O)C1=C(C2=O)C(O)C[C@@](C)(O)C1 (some centres undefined),–,–,inactive
O=C(Cn1c2ccc(Br)cc2c2nc3ccccc3nc21)N/N=C/c1ccccc1,> 100,> 100,–
CN1N=C(c2ccncc2)OC1c1ccccc1F (centres undefined),> 200,129,–
N=S(c1ccccc1)c1ccccc1[N+](=O)[O-] (centres undefined),> 158,1.7,–
CCOC(=O)C(Cc1ccc(N=NN(C)C)cc1)NC(=O)CC1c2ccccc2-c2ccccc21 (centres undefined),> 11,6.46,–
O=Nc1ccccc1C(=O)O,> 151,47.9,–
CC(C)=CC1CC(n2cc(C)c(=O)[nH]c2=O)ON1CCO[Si](C)(C)C(C)(C)C (centres undefined),–,–,inactive
Cc1ccc(S(=O)(=O)N2C3C=CC(C3)[C@@H]2C(Cl)(Cl)Cl)cc1 (some centres undefined),> 200,30.9,–
O=c1[nH]nc(-c2ccccc2)n1O,> 200,> 200,–
CC(=O)Nc1ccc(C(C2=C(O)c3ccccc3C(=O)C2=O)C2=C(O)c3ccccc3C(=O)C2=O)cc1,> 200,16.2,–
C=CCOc1cc(NC(=S)c2sccc2C)ccc1Cl,1.45,14.5,–
O=S1(=O)C/C(=C\N2CCOCC2)c2ccccc21,> 200,> 200,–

Structure (SMILES),EC50 [µM],IC50 [µM],outcome
CCOC(=O)c1cc2c(C(=O)c3ccc([N+](=O)[O-])cc3)c(C(C)=O)ccc2[nH]1,> 200,174,–
CSC1=NC(C(N)=O)C(N)N1C (centres undefined),> 200,> 200,–
CC(C)(C)O/C=C1/C(=O)OC2C[C@@H](O[Si](C)(C)C(C)(C)C)CC12 (some centres undefined),> 200,120,–
O=c1cc2ccccc2nn1Cc1cccc(Cl)c1,> 115,102,–
Cc1nc2c(o1)C(=Nc1ccc(I)cc1)c1ccccc1C2=Nc1ccc(I)cc1,–,–,inactive
NC(=O)C(=O)C(c1ccccc1)S(=O)(=O)Cc1ccccc1 (centres undefined),> 200,> 200,–
S=C(N/N=C/c1ccccn1)N1CCCCCC1,> 0.2,0.0105,–
CCCCc1c2c(nc3c1CC/C(=C\c1ccc([N+](=O)[O-])cc1)C3=O)CCCC2,> 6.92,1.32,–
Oc1cc(O)c2ccc(-c3ccc(O)c(O)c3)[o+]c2c1,> 200,12.3,–
OC1C(O)C(O)C2(CO2)C(O)C1O (centres undefined),> 200,> 200,–
CC(=O)NN(c1ccccc1)C1CCN(c2ccccc2)N1C(C)=O (centres undefined),> 200,10.7,–
CC1(C)CC2=NOS3=C2C(=NO3)C1c1ccccn1 (centres undefined),> 200,95.5,–
COc1ccc(-c2c(-c3ccccc3)c(C)nc3nc(SC)nc(SC)c23)cc1OC,> 200,11.5,–
Cn1ccnc1Oc1ccc(Cl)cc1,> 200,9.77,–
Clc1cc(Cl)cc(C=NC23CC4CC(CC(C4)C2)C3)c1,> 200,44.7,–
O=[N+]([O-])c1ccc(-n2nc3ccc4c(no[n+]4[O-])c3n2)cc1,> 200,57.5,–
COc1cc(C(c2ccc3c(c2)OCO3)C2SCCCS2)cc(OC)c1OC (centres undefined),> 200,0.871,–
O=C1OCc2cccc3c2-c2c1cccc2C(=O)OC3,–,–,inactive

# Reference: PubChem BioAssay AID179 (DTP/NCI, 2004)
